This assay concerns the target Ashbya gossypii ICL (isocitrate lyase) (Eremothecium gossypii, UniProt O94198). Briefly: Colorimetric test of purified isocitrate lyase (ICL) activity with inhibitors. It counts as biochemical. The conditions noted are these: for inhibition at 1000 µM: read-out: inhibition of ICL activity. An excerpt: In order to identify substances exerting an inhibitory effect on ICL, the Ashbya gossypii ICL was first of all purified. The enzyme was isolated and purified after the fungal mycelium had been grown on vegetable oil. […] Approximately 78% of this activity is recovered in dissolved form in the supernatant after centrifuging at 40,000 g. Subsequent fractionation by means of ammonium sulfate precipitation results in a three-fold enrichment of the enzyme. After gel filtration through a Sephacryl S-300 column, the ICL is bound to the cation exchange material Mono S-Sepharose and eluted with NaCl. The resulting preparation is homogeneous by SDS polyacrylamide gel electrophoresis and has a specific activity of 18.4 U/mg.
The purified enzyme can be used to measure the effects of substances on its activity in a […] test (Dixon, H. and Kornberg, H. L. (1959), Biochem. J. 72, 3: Assay methods for key enzymes of the glyoxylate cycle). The effects of the tested substances on the enzyme are summarized and depicted in Table 2 and FIG. 1, respectively. Substances to be investigated included those which, as metabolites in the fungal cell, could have an inhibitory effect on the enzyme.

[1] abbreviates: purified enzyme, concentration of 10 mM.

Data on four compounds can be found in patent publication US5976844A, “Riboflavin-production process by means of micro-organisms with modified isocitratlyase activity” (BASF Aktiengesellschaft, priority 1995, dated 1999).

Each structure is given as a SMILES string. Like-named read-outs stand apart in the source and are kept apart here.

Chain of Ashbya gossypii ICL (isocitrate lyase) (O94198 whole entry): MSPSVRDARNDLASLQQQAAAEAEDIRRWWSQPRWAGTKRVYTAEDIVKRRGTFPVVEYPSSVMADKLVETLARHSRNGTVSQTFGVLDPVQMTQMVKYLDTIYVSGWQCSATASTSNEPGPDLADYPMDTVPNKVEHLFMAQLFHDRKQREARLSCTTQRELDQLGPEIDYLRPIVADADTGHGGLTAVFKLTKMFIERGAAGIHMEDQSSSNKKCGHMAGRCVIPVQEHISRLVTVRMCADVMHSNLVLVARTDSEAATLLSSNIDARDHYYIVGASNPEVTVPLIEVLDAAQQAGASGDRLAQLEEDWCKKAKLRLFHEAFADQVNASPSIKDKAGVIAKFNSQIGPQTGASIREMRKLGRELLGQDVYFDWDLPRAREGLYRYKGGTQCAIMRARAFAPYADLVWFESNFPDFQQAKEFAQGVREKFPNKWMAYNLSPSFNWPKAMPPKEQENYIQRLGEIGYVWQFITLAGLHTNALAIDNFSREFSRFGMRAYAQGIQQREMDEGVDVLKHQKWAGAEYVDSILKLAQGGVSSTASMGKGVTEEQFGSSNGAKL

On to `O=C(O)[C@H](O)[C@@H](O)[C@H](O)[C@H](O)COP(=O)(O)O` [6-P-gluconate], for which the “inhibition of ICL activity” value under setting [1] is recorded as “greater than 50%”.

Take `C=C(CC(=O)O)C(=O)O` [itaconate]: the inhibition (commonly the share of the control response that was lost under treatment) at 1000 µM worked out at 78%.

On to `O=C(O)C(=O)O` [oxalate], for which the inhibition at 1000 µM (purified enzyme, concentration of 1 mM) was found to be 95%.

`C=C(OP(=O)(O)O)C(=O)O` [phosphoenolpyruvate]: the inhibition at 10000 µM under setting [1] was above 50%.
